Experiments:
[1] = target: T1, TAS2R9 (Homo sapiens, UniProt Q9NYW1); assay: cell-based; set-up: bioluminescence intracellular calcium release assay, mt-clytin II with coelenterazine, Gα16-gust44 co-expressed; conditions: 293AD cells
T1 sequence (Q9NYW1 1-312): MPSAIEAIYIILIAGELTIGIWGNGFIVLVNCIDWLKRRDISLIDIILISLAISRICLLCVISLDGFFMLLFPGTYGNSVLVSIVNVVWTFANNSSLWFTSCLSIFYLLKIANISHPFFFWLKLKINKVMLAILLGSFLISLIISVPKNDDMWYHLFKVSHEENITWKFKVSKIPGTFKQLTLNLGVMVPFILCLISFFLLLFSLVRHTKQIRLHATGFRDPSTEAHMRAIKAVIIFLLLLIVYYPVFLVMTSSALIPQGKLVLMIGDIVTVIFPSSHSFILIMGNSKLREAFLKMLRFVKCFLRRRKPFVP
Description: (§1) The bioluminescence-based assay was used to characterize the functional properties of various human TAS2Rs. For each TAS2R, one or more of its cognate agonists were tested against either the AD-293 or 293AD cell line, or both. Both cell lines were used because of their stronger adherent properties, which facilitate media changes on the day of the FLIPR assay. However, because both cell lines are generated differently, some disparities in gene expression capacities due to a myriad of factors could be reasonably expected. Consequently, some TAS2Rs may be well expressed in one cell line but not the other, and the ability of each cell line to express a particular TAS2R needs to be empirically evaluated. […] However, deviations between our experimental and published potency values for some ligands (i.e. TAS2R4: stevioside; TAS2R7: Mg^2+, Mn^2+, Zn^2+) were observed, which could be attributed to the use of a different assay format, readout and processing parameters, use of different cell lines with resultant potential differences in TAS2R expression levels, and quality and methodological differences in ligand preparations. Because potency values could be obtained that were consistent with the literature, or close to the reported minimal effective stimulatory concentration upon further testing of other TAS2R4/7 agonists, the deviation in EC50 values could be largely attributed to qualitative differences in the ligands (Supplementary Fig. S3). Calcium responses induced by the tested cognate agonists reflected specific TAS2R stimulation. […] Poor localization of TAS2Rs to the cell surface in heterologous systems was associated with diminished receptor signaling output and functionality. One of the more commonly used strategies to enhance the density of TAS2Rs at the cell surface involves fusing an N-terminal signal sequence of either the SST3, or Rho receptor to the TAS2R[24]. We adopted this approach, specifically co-expressing SST3-TAS2R with Gα16-gust44 chimera and mt-clytin II, to develop and validate a bioluminescence-based TAS2R intracellular calcium release assay. A strength of the bioluminescence-based TAS2R assay is its capacity to generate greater assay spans than that of fluorescence-based assays, which could be largely attributed to the utilization of mt-clytin II as the calcium reporter. Calcium-binding photoproteins in general are useful reporters for studying calcium-mediated signaling processes. […] Its fast calcium binding and dissociation kinetics render it a suitable indicator to report on swift, transient changes in calcium ion concentrations and study rapid receptor-ligand interactions. Mitochondrial targeting of clytin II was crucial to generating higher luminescence intensity than that of cytosol-localized clytin II, as inositol 1,4,5-triphosphate (IP3)-induced calcium release from the ER subsequent to ligand activation is thought to result in the formation of ER-proximal, calcium-rich microdomains that enabled the closely apposed mitochondria to sense a higher initial rise in calcium concentration than would be experienced by the bulk cytosol.

[2] = target: T2, TAS2R43 (Homo sapiens, UniProt P59537); assay: bioluminescence (mt-clytin II) intracellular calcium release; format: cell-based
T2 construct: AD-293 cells; co-expressed Galpha16-gust44 chimera and mt-clytin II reporter (type 2 multigene vector)
T2 sequence (P59537 2-309): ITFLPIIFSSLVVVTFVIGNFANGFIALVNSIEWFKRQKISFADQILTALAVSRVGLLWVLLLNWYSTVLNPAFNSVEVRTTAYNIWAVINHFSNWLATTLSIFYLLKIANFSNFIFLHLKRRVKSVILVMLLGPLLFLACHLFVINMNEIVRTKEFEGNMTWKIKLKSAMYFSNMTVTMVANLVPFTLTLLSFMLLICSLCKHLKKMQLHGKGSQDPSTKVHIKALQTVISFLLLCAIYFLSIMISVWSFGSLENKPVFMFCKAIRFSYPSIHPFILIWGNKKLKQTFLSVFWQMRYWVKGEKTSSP
Source text: bioluminescence (mt-clytin II) intracellular calcium release on TAS2R43 | TAS2R43, both aristolochic acid and aloin could be considered full agonists | indicating the partial agonist activity of caffeine towards TAS2R43

[3] = target: T3, TAS2R30 (Homo sapiens, UniProt P59541); assay: cell-based; set-up: bioluminescence intracellular calcium release assay, mt-clytin II with coelenterazine, Gα16-gust44 co-expressed; conditions: 293AD cells
T3 sequence (P59541 1-319): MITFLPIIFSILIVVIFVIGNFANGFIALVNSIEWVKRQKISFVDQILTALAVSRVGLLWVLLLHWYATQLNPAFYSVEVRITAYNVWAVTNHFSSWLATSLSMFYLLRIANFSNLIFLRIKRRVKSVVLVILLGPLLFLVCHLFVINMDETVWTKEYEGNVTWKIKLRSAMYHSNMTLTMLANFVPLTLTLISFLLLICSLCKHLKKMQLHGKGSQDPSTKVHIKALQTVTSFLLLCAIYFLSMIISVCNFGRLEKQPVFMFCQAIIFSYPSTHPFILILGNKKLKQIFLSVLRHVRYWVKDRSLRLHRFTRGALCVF
Description: as §1

[4] = target: T4, TAS2R8 (Homo sapiens, UniProt Q9NYW2); assay: cell-based; set-up: bioluminescence intracellular calcium release assay, mt-clytin II with coelenterazine, Gα16-gust44 co-expressed
T4 sequence (Q9NYW2 1-309): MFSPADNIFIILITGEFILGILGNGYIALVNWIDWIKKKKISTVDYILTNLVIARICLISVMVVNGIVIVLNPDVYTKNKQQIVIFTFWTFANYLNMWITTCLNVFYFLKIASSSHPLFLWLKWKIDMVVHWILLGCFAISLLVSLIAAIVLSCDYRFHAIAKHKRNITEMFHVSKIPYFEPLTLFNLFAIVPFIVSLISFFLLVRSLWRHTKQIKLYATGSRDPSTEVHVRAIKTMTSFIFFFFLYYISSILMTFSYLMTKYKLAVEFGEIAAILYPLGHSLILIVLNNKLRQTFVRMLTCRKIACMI
Description: as §1

[5] = target: T5, TAS2R13 (Homo sapiens, UniProt Q9NYV9); assay: cell-based; set-up: bioluminescence intracellular calcium release assay, mt-clytin II with coelenterazine, Gα16-gust44 co-expressed; conditions: 293AD cells
T5 sequence (Q9NYV9 1-303): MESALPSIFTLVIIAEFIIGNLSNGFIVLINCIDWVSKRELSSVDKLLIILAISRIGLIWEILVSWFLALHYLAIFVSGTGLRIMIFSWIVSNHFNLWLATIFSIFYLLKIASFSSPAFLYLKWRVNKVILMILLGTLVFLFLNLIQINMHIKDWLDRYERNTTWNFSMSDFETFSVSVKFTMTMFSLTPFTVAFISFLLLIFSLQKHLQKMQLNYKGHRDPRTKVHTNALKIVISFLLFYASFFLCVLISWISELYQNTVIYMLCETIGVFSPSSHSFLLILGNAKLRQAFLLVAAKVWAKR
Description: as §1

[6] = target: T6, TAS2R16 (Homo sapiens, UniProt Q9NYV7); assay: cell-based; set-up: bioluminescence intracellular calcium release assay, mt-clytin II with coelenterazine, Gα16-gust44 co-expressed
T6 sequence (Q9NYV7 1-291): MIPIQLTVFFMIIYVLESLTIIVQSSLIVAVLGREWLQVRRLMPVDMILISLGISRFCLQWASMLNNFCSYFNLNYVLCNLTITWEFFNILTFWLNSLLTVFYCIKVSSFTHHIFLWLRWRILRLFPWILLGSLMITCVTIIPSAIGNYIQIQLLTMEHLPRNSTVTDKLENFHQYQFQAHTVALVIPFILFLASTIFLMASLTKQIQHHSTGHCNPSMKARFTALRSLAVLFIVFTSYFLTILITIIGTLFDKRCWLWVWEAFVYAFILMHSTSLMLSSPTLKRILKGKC
Description: as §1

[7] = target: T7, TAS2R3 (Homo sapiens, UniProt Q9NYW6); assay: cell-based; set-up: bioluminescence intracellular calcium release assay, mt-clytin II with coelenterazine, Gα16-gust44 co-expressed; conditions: 293AD cells
T7 sequence (Q9NYW6 1-316): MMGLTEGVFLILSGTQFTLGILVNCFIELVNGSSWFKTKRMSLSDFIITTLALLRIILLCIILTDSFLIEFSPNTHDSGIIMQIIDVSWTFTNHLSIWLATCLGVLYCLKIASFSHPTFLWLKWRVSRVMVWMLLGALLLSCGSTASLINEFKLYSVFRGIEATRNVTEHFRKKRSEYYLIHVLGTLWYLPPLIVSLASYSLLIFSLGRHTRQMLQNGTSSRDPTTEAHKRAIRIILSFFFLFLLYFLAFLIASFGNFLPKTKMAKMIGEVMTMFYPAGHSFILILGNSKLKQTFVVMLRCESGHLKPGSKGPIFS
Description: as §1

[8] = target: T8, TAS2R20 (Homo sapiens, UniProt P59543); assay: cell-based; set-up: bioluminescence intracellular calcium release assay, mt-clytin II with coelenterazine, Gα16-gust44 co-expressed
T8 sequence (P59543 1-309): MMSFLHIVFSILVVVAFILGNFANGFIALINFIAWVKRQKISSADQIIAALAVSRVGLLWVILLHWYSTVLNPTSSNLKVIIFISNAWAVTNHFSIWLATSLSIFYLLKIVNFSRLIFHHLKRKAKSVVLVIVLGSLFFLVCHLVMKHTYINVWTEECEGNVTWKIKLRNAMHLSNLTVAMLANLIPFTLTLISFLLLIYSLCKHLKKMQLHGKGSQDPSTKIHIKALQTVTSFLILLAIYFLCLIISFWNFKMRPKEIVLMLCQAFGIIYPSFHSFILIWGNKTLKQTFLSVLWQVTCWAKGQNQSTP
Description: as §1

[9] = target: T9, TAS2R14 (Homo sapiens, UniProt Q9NYV8); assay: cell-based; set-up: species or system 293AD; bioluminescence intracellular calcium release assay, mt-clytin II with coelenterazine, Gα16-gust44 co-expressed
T9 sequence (Q9NYV8 1-317): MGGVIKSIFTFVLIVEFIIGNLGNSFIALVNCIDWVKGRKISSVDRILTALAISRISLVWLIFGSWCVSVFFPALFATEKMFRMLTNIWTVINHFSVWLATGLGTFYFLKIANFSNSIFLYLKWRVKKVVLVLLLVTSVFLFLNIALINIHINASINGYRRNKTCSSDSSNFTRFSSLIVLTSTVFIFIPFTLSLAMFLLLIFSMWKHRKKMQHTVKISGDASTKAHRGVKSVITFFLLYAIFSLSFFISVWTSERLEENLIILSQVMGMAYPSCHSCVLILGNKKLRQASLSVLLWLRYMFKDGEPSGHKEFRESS
Description: The bioluminescence-based assay was used to characterize the functional properties of various human TAS2Rs. For each TAS2R, one or more of its cognate agonists were tested against either the AD-293 or 293AD cell line, or both. […] We adopted this approach, specifically co-expressing SST3-TAS2R with Gα16-gust44 chimera and mt-clytin II, to develop and validate a bioluminescence-based TAS2R intracellular calcium release assay.

[10] = target: T10, TAS2R10 (Homo sapiens, UniProt Q9NYW0); assay: cell-based; set-up: bioluminescence intracellular calcium release assay, mt-clytin II with coelenterazine, Gα16-gust44 co-expressed
T10 sequence (Q9NYW0 1-307): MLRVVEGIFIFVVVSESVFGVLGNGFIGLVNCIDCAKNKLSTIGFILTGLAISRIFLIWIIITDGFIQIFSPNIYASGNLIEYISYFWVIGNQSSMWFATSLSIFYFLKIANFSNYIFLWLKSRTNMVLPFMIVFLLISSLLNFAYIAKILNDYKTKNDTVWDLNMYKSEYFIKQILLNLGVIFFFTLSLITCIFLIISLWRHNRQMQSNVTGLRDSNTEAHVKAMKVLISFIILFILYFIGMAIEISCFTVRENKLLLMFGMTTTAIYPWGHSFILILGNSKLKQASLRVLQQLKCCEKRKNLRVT
Description: as §1

Structure (SMILES): CN1CCN(CC(=O)N2c3ccccc3C(=O)Nc3cccnc32)CC1 [Pirenzepine]
- EC50 [1]: 4000 ± 400 µM

Structure (SMILES): COc1cccc2c1cc([N+](=O)[O-])c1c(C(=O)O)cc3c(c12)OCO3 [aristolochic acid]
- EC50 [2]: 0.026 ± 0.003 µM

Structure (SMILES): C=C[C@H]1[C@H](O[C@@H]2O[C@H](CO)[C@@H](O)[C@H](O)[C@H]2OC(=O)c2c(O)cc(O)cc2-c2cccc(O)c2)OC=C2C(=O)OCC[C@H]21 [Amarogentin]
- EC50 [3]: 3 ± 1 µM

Structure (SMILES): O=C(N[C@H](CO)[C@H](O)c1ccc([N+](=O)[O-])cc1)C(Cl)Cl [Chloramphenicol]
- EC50 ([4]; 293AD cells): 18 ± 2.7 µM
- EC50 ([4]; AD-293 cells): 70 ± 12 µM

Structure (SMILES): CC[N+](CC)(CC(=O)Nc1c(C)cccc1C)Cc1ccccc1 [Denatonium benzoate]
- EC50 ([4]; AD-293 cells): 1000 ± 100 µM

Structure (SMILES): CC[N+](C)(CC)CCOC(=O)C(O)(c1ccccc1)C1CCCCC1 (stereo not shown) [Oxyphenonium]
- EC50 [5]: 161 ± 16 µM

Structure (SMILES): OCc1ccccc1O[C@@H]1O[C@H](CO)[C@@H](O)[C@H](O)[C@H]1O [Salicin]
- EC50 ([6]; 293AD cells): 400 ± 200 µM
- EC50 ([6]; AD-293 cells): 2000 ± 600 µM

Structure (SMILES): CCN(CC)CCCC(C)Nc1ccnc2cc(Cl)ccc12 (stereo not shown) [Chloroquine diphosphate]
- EC50 [7]: 45 ± 14 µM

Structure (SMILES): OC[C@H]1O[C@@H](Oc2ccc(O)cc2)[C@H](O)[C@@H](O)[C@@H]1O [Arbutin]
- EC50 ([6]; AD-293 cells): 5000 ± 1200 µM

Structure (SMILES): O=C(O)c1cc(=O)c2c(OCC(O)COc3cccc4oc(C(=O)O)cc(=O)c34)cccc2o1 [Cromolyn]
- EC50 ([8]; 293AD cells): 35 ± 7 µM
- EC50 ([8]; AD-293 cells): 73 ± 26 µM

Structure (SMILES): Cn1c(=O)c2c(ncn2C)n(C)c1=O [caffeine]
- EC50 [2]: 390 ± 120 µM

Structure (SMILES): O=C1c2c(O)cccc2C([C@@H]2O[C@H](CO)[C@@H](O)[C@H](O)[C@H]2O)c2cc(CO)cc(O)c21 (stereo partly shown) [aloin]
- EC50 [2]: 5 ± 3 µM

Structure (SMILES): C=C(C)[C@@H]1[C@H]2OC(=O)[C@@H]1[C@]1(O)C[C@H]3O[C@]34C(=O)O[C@H]2[C@]14C [Picrotoxinin]
- EC50 [9]: 54 ± 8.4 µM

Structure (SMILES): COc1cc2c(cc1OC)[C@@]13CCN4CC5=CCO[C@H]6CC(=O)N2[C@H]1[C@H]6[C@H]5C[C@H]43 [Brucine]
- EC50 ([10]; 293AD cells): 21 ± 6.5 µM
- EC50 ([10]; AD-293 cells): 42 ± 3 µM

Structure (SMILES): O=Cc1ccccc1O[C@@H]1O[C@H](CO)[C@@H](O)[C@H](O)[C@H]1O [Helicin]
- EC50 ([6]; AD-293 cells): 3000 ± 200 µM

Source: paper PMC9587021, “Construction of a bioluminescence-based assay for bitter taste receptors (TAS2Rs)” (Scientific Reports, 2022)
